Format in all cases: cell-based, human
The subject of experiment [1] is HTT. The experiment can be described thus: Splicing RT-qPCR assay, HTT mRNA canonical junction (CJ) and alternative junction (AJ). The settings on record: for AC50: increase in AJ mRNA. The protocol:
(§1) Compounds described herein were used to modulate RNA transcript abundance in cells. The expression of a target mRNA was measured by detecting the formation of an exon-exon junction in the canonical transcript (CJ). A compound mediated exon-inclusion event was detected by observing an increase in formation of a new junction with an alternative exon (AJ). Real-time qPCR assays were used to detect these splicing switches and interrogate the potency of various compounds towards different target genes. A high-throughput real time quantitative PCR (RT-qPCR) assay was developed to measure these two isoforms of the mRNA (CJ and AJ) for exemplary genes, such as HTT, SMN2, and MYB, together with a control housekeeping gene, GAPDH or GUSB or PPIA, used for normalization. Briefly, the A673 or K562 cell line was treated with various compounds described herein (e.g., compounds of Formula (I)). After treatment, the levels of the HTT, MYB, or SMN2 mRNA targets were determined from each sample of cell lysate by cDNA synthesis followed by qPCR.
(§2) The A673 cell line was cultured in DMEM with 10% FBS. Cells were diluted with full growth media and plated in a 96-well plate (15,000 cells in 100 ul media per well). The plate was incubated at 37° C. with 5% CO2 for 24 hours to allow cells to adhere. An 11-point 3-fold serial dilution of the compounds was made in DMSO then diluted in media in an intermediate plate. Compounds were transferred from the intermediate plate to the cell plate with the top dose at a final concentration of 10 uM in the well. Final DMSO concentration was kept at or below 0.25%. The cell plate was returned to the incubator at 37° C. with 5% CO2 for an additional 24 hours.
(§3) The K562 cell line was cultured in IMDM with 10% FBS. For K562, cells were diluted with full growth media and plated in either a 96-well plate (50,000 cells in 50 uL media per well) or a 384-well plate (8,000-40,000 cells in 45 uL media per well). An 11-point 3-fold serial dilution of the compounds were made in DMSO then diluted in media in an intermediate plate. Compound was transferred from the intermediate plate to the cell plate with the top dose at a final concentration of 10 uM in the well. Final DMSO concentration was kept at or below 0.25%. Final volume was 100 uL for 96-well plate and 50 uL for 384-well plate. The cell plate was then placed in an incubator at 37° C. with 5% CO2 for 24 hours.
(§4) The cells were then gently washed with 50 uL-100 uL cold PBS before proceeding to addition of lysis buffer. 30 uL-50 μL of room temperature lysis buffer with DNAse I (and optionally RNAsin) was added to each well. Cells were shaken/mixed thoroughly at room temperature for 5-10 minutes for lysis to take place and then 3 uL-5 μL of room temperature stop solution was added and wells were shaken/mixed again. After 2-5 minutes, the cell lysate plate was transferred to ice for RT-qPCR reaction setup. The lysates could also be frozen at −80° C. for later use.
(§5) In some cases, a direct lysis buffer was used. An appropriate volume of 3× lysis buffer (10 mM Tris, 150 mM NaCl, 1.5%-2.5% Igepal and 0.1-1 U/uL RNAsin, pH 7.4) was directly added to either K562 or A673 cells in media and mixed by pipetting 3 times. The plates were then incubated at room temperature with shaking/rocking for 20-50 minutes to allow for lysis to take place. After this time, the cell lysate plate was transferred to ice to set up for the RT-qPCR reactions. The lysates could also be frozen at −80° C. for later use.
(§6) To set up 10 uL RT-qPCR reactions, cell lysates were transferred to 384-well qPCR plates containing the master mix according to the table below. The plates were sealed, gently vortexed, and spun down before the run. The volumes were adjusted accordingly in some instances where the reaction was carried in 20 μL. The table below summarizes the components of the RT-qPCR reactions:
(§7) The RT-qPCR reaction was performed using a QuantStudio (ThermoFisher) under the following fast cycling conditions. […]
A general note: Quantitative PCR measures a nucleic acid by following its amplification.

The test system of experiment [2] is MYB. Description: Splicing RT-qPCR assay, MYB mRNA canonical junction (CJ) and alternative junction (AJ). The settings on record: for AC50: increase in AJ mRNA. The protocol:
as §1, §2, §3, §4, §5, §6, §7

The subject of another experiment is SMN2. Description: Splicing RT-qPCR panel, SMN2 canonical junction (CJ) mRNA. The settings on record: read-out: SMN2 IC50 (decrease in CJ mRNA levels). As for the experimental part: as §1, §2, §3, §4, §5, §6, §7
Another experiment deals with Target C. Description: Splicing RT-qPCR panel, Target C canonical junction (CJ) mRNA. The settings on record: read-out: Target C IC50 (decrease in CJ mRNA levels). As for the experimental part: as §1, §2, §3, §4, §5, §6, §7
Experiment [3] has as its system MYB. Description: HiBiT protein abundance assay, MYB. Particulars: Table 13A, modified K562 cells, 24 hours. The protocol: (§8) Compounds described herein were used to screen for effects on quantitative protein abundance using a HiBit assay system (Promega). Quantitative protein abundance was determined by measuring the protein levels of HiBit-tagged protein targets expressed in cell culture via luminescence using the Nano-Glo HiBiT Lytic Detection System, which uses a split complementation assay format to reconstitute NanoBiT enzyme to generate a luminescent signal. A protein abundance assay was developed such that endogenous protein targets could be modified with the HiBiT peptide tag and their abundance could be assessed after compound treatment. Briefly, K562 cell lines containing a HiBiT-modification were treated with various compounds described herein (e.g., compounds of Formulas (I), (II), or (III)). After treatment for 24 hours, the protein abundance of a specific target was determined by measuring luminescence.
(§9) Cells were maintained in IMIDM with 10% FBS. Before the assay, cells were diluted with […] growth media (IMIDM+[…] media) and were seeded in a 384-well plate at a density of 10000 cells/well (for each cell line listed in Table 12). Each compound was prepared as a 10-point 3-fold serial dilution in DMSO with the top dose at a final concentration of 10 μM in the well. Unmodified K562 cells were added at the previously specified density with DMSO to serve as an assay baseline and positive control (PC) and DMSO only with the respective modified cell lines was added to the negative control (NC) columns. Final DMSO concentration was kept at or below 0.25%. Treated cell plates were placed in an incubator at 37° C. with 5% CO2 for 24 hours. After 24 hours, 25 μL of Complete HiBit Lytic reagent was added to each well at room temperature (e.g. one plate requiring 10 mL Lytic Buffer, 100 μL LgBiT Protein, 200 μL Lytic Substrate), shaken for 5 minutes at 600 RPM, then left to sit for 10 minutes for signal to stabilize before reading on a Spark Cyto plate reader (Tecan) with a 500 ms measurement time.
(§10) To determine compound effects on protein abundance of each target in Table 12, the percent response for each respective cell line was calculated at each compound concentration as follows:
(§11) For the normalized response at each concentration, a four-parameter logistical regression was fit to the data and the response was interpolated at the 50% value to determine a concentration for protein abundance at 50% (IC50) the untreated control.
(In general: With HiBiT, luminescence reflects the tagged protein that the partner subunit can reach.)

Experiment [4] has as its system HTT. The experiment can be described thus: HiBiT protein abundance assay, HTT. The settings on record: Table 13A, modified K562 cells, 24 hours. The protocol:
as §8, §9, §10, §11

[5] abbreviates: Homo sapiens, 24 h, decrease in CJ mRNA, A673 or K562 cells, 24 hours treatment, RT-qPCR, read-out: HTT CJ IC50.
Setting [6] is: Homo sapiens, 24 h, A673 or K562 cells, 24 hours treatment, RT-qPCR.
The mark [7] stands for this setting: Homo sapiens, RT-qPCR panel, canonical junction mRNA, compound concentration having 50% response in CJ decrease, read-out: HTT IC50 (decrease in CJ mRNA levels).
[8] abbreviates: Homo sapiens, 24 h, decrease in CJ mRNA, A673 or K562 cells, 24 hours treatment, RT-qPCR, read-out: MYB CJ IC50.
[9] abbreviates: Homo sapiens, RT-qPCR panel, canonical junction mRNA, compound concentration having 50% response in CJ decrease, read-out: MYB IC50 (decrease in CJ mRNA levels).
Where [10] appears, read: Homo sapiens, RT-qPCR panel, canonical junction mRNA, compound concentration having 50% response in CJ decrease.
[11] abbreviates: Homo sapiens, A673 or K562 cells, 24 hours treatment, RT-qPCR.
Setting [12] is: RT-qPCR panel, canonical junction mRNA, compound concentration having 50% response in CJ decrease.
Setting [13] is: Homo sapiens, gene panel, CJ qPCR, protocol of Example 142.

This note sets out measurements from patent US20240368163A1, “COMPOUNDS AND METHODS FOR MODULATING SPLICING” (REMIX THERAPEUTICS INC., priority 2021, published 2024).

Like-named read-outs stand apart in the source and are kept apart here.

Regarding `CN(c1ccc(-c2ccc(-n3cccn3)c3nn[nH]c23)nn1)[C@@H]1C[C@H]2CC[C@@H](C1)N2` [Compound 119], the IC50 in the experiment with HTT [1] (setting [5]), in the experiment with HTT [1] (setting [7]), in the experiment with MYB [2] (setting [8]), in the experiment on MYB [2] (setting [9]), in the experiment on SMN2 (setting [10]) and with Target C (setting [10]) was 0.1 to 1 µM throughout. Besides, the AC50 (as a rule, the midpoint of the concentration-response curve, whichever way the signal moves) was 1 to 10 µM with HTT [1] (setting [6]) and 0.1 to 1 µM in the experiment on MYB [2] (setting [6]).

Take `CC1(C)CC(Oc2ccc(-c3ccc(-c4cn[nH]c4)c4cn[nH]c34)nn2)CC(C)(C)N1` [Compound 138]: the IC50 in the experiment on HTT [1] (setting [5]), in the experiment on HTT [1] (setting [7]), in the experiment with MYB [2] (setting [8]), with MYB [2] (setting [9]), in the experiment on SMN2 (setting [10]) and in the experiment with Target C (setting [10]) was 0.1 to 1 µM in each case. The AC50 in the experiment with HTT [1] (setting [6]) and in the experiment on MYB [2] (setting [6]) was 0.1 to 1 µM throughout.

In the case of `CN(c1cnc(-c2cc(F)c(-c3cn[nH]c3)c3cn[nH]c23)nn1)[C@@H]1C[C@H]2CC[C@@H](C1)N2` [Compound 149], the IC50 (in general, the concentration at which inhibition is half-maximal) in the experiment on HTT [1] (setting [7]) is below 0.1 µM; in the experiment with MYB [2] (setting [9]), 1 to 10 µM; in the experiment with MYB [2] (Homo sapiens, decrease in CJ mRNA, A673 or K562 cells, 24 hours treatment, RT-qPCR, read-out: MYB CJ IC50) it was 1 to 10 µM; with SMN2 (setting [10]), 0.1 to 1 µM; in the experiment with Target C (setting [10]), 0.1 to 1 µM. For the same compound, the AC50 with HTT [1] (setting [11]) is below 0.1 µM; with MYB [2] (setting [11]), 1 to 10 µM.

As for `CN(c1cnc(-c2cc(F)c(-c3cnn(C)c3)c3cn[nH]c23)nn1)[C@@H]1C[C@H]2CC[C@@H](C1)N2` [Compound 290], the AC50 was below 0.1 µM in the experiment on HTT [1] (setting [6]) and 0.1 to 1 µM with MYB [2] (setting [6]). Further, the IC50 in the experiment on HTT [1] (setting [7]) was below 0.1 µM; in the experiment on MYB [2] (setting [8]) it was 1 to 10 µM; with MYB [2] (setting [9]) it was 1 to 10 µM; in the experiment with SMN2 (setting [10]) it was 0.1 to 1 µM; in the experiment on Target C (setting [10]) it was 0.1 to 1 µM.

As for `c1cnn(-c2ccc(-c3ccc(O[C@@H]4C[C@H]5CC[C@@H](C4)N5)nn3)c3cn[nH]c23)c1` [Compound 308], the AC50 in the experiment with HTT [1] (setting [6]) and in the experiment on MYB [2] (setting [6]) was below 0.1 µM throughout. For the same compound, the IC50 in the experiment on HTT [1] (setting [7]), in the experiment with MYB [2] (setting [8]), with MYB [2] (setting [9]), in the experiment on SMN2 (setting [10]) and with Target C (setting [10]) was below 0.1 µM each time.

On to `CN(c1ccc(-c2ccc(-n3cccn3)c3[nH]ncc23)nn1)[C@@H]1C[C@H]2CC[C@@H](C1)N2` [Compound 409], for which the AC50 in the experiment with HTT [1] (setting [6]) was below 0.1 µM; in the experiment on MYB [2] (setting [6]), 0.1 to 1 µM. Moreover, the IC50 in the experiment with HTT [1] (setting [7]) was below 0.1 µM; with MYB [2] (setting [8]), 0.1 to 1 µM; in the experiment on MYB [2] (setting [9]) it was 0.1 to 1 µM; with SMN2 (setting [10]), below 0.1 µM; with Target C (setting [10]) it was below 0.1 µM.

As to `c1cnn(-c2ccc(-c3cnc(N4CCNC(C5CC5)C4)nn3)c3cn[nH]c23)c1` (stereo not shown) [Compound 555], the IC50 was below 0.1 µM in the experiment with HTT [1] (RT-qPCR panel, canonical junction mRNA, compound concentration having 50% response in CJ decrease, read-out: HTT IC50 (decrease in CJ mRNA levels)); 1 to 10 µM with MYB [2] (RT-qPCR panel, canonical junction mRNA, compound concentration having 50% response in CJ decrease, read-out: MYB IC50 (decrease in CJ mRNA levels)); 0.1 to 1 µM with SMN2 (setting [12]); 0.1 to 1 µM with Target C (setting [12]); 1 to 10 µM in the experiment on MYB [3]; 0.1 to 1 µM with HTT [4].

`c1cnn(-c2ccc(-c3cnc(O[C@H]4C[C@H]5COC[C@@H](C4)N5)nn3)c3cn[nH]c23)c1` [Compound 585]: the IC50 in the experiment with HTT [1] (setting [7]), in the experiment on MYB [2] (setting [9]), with SMN2 (setting [10]) and in the experiment on Target C (setting [10]) was above 10 µM each time.

On to `COc1nc(-c2ccc(OC3CC(C)(C)NC(C)(C)C3)nc2)ccc1-c1cnn(C)c1` [Compound 990], for which the IC50 in the experiment on HTT [1] (Homo sapiens, gene panel, CJ qPCR, protocol of Example 142, read-out: HTT IC50 (decrease in CJ mRNA levels)) is above 10 µM; in the experiment with MYB [2] (Homo sapiens, gene panel, CJ qPCR, protocol of Example 142, read-out: MYB IC50 (decrease in CJ mRNA levels)), above 10 µM; with SMN2 (setting [13]) it was 1 to 10 µM; with Target C (setting [13]), above 10 µM.
